Several values for one entry are separate records, joined by “and”; a condition that tells them apart may be missing. Equal values may be shown once. Toxic doses and inconclusive results are not listed.
Tested on: P388 leukemia ip, CD2F1 mice, survival T/C
Test: NCI In Vivo Anticancer Drug Screen. Data for tumor model P388 Leukemia (intraperitoneal) in CD2F1 (CDF1) mice
Conditions: endpoint: median survival time, higher = longer survival
How it was run: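 Mice carrying the transplanted tumor received test compound or vehicle. Survival was recorded in each group, and the value is the treated-group measurement divided by that of the vehicle-treated control group.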

[1] = dose: 100.0 mg/kg/injection, schedule: Q01DX001 (ip), vehicle: Klucel (hydroxypropylcellulose) (HPC)
[2] = dose: 200.0 mg/kg/injection, schedule: Q01DX001 (ip), vehicle: Klucel (hydroxypropylcellulose) (HPC)
[3] = dose: 400.0 mg/kg/injection, schedule: Q01DX001 (ip), vehicle: Klucel (hydroxypropylcellulose) (HPC)
[4] = dose: 25.0 mg/kg/injection, schedule: Q04DX002 (ip), vehicle: saline with Tween-80
[5] = dose: 50.0 mg/kg/injection, schedule: Q04DX002 (ip), vehicle: saline with Tween-80
[6] = dose: 100.0 mg/kg/injection, schedule: Q04DX002 (ip), vehicle: saline with Tween-80

COc1cc(OC)c(-c2cc(C(=O)O)c3cc4ccccc4cc3n2)c(OC)c1
T/C (dose: 50.0 mg/kg/injection, schedule: Q01DX009 (ip), vehicle: Klucel (hydroxypropylcellulose) (HPC)): 89 % of control
T/C (dose: 100.0 mg/kg/injection, schedule: Q01DX009 (ip), vehicle: Klucel (hydroxypropylcellulose) (HPC)): 99 % of control
T/C (dose: 200.0 mg/kg/injection, schedule: Q01DX009 (ip), vehicle: Klucel (hydroxypropylcellulose) (HPC)): 97 % of control

CCOC(=O)CN=NNc1ccc([N+](=O)[O-])cc1
T/C [1]: 106 % of control
T/C [2]: 109 % of control
T/C [3]: 109 % of control

O=c1ccccc(Br)c1O
T/C (dose: 25.0 mg/kg/injection, schedule: Q01DX005 (ip), vehicle: Klucel (hydroxypropylcellulose) (HPC)): 100 % of control
T/C (dose: 50.0 mg/kg/injection, schedule: Q01DX005 (ip), vehicle: Klucel (hydroxypropylcellulose) (HPC)): 106 % of control
T/C (dose: 100.0 mg/kg/injection, schedule: Q01DX005 (ip), vehicle: Klucel (hydroxypropylcellulose) (HPC)): 106 % of control

ClC1CCCC[N-]1.ClC1CCCC[N-]1.[Cl][Pt+2][Cl] (stereo not given)
T/C (dose: 12.5 mg/kg/injection, schedule: Q01DX009 (ip), vehicle: saline with Tween-80): 109 % of control
T/C (dose: 25.0 mg/kg/injection, schedule: Q01DX009 (ip), vehicle: saline with Tween-80): 103 % of control
T/C (dose: 50.0 mg/kg/injection, schedule: Q01DX009 (ip), vehicle: saline with Tween-80): 101 % of control
T/C (dose: 100.0 mg/kg/injection, schedule: Q01DX009 (ip), vehicle: saline with Tween-80): 97 % of control
T/C (dose: 200.0 mg/kg/injection, schedule: Q01DX009 (ip), vehicle: saline with Tween-80): 99 % of control

O=C1NC2CCC1CC2
T/C (dose: 50.0 mg/kg/injection, schedule: Q01DX005 (ip), vehicle: suspension in saline): 101 % of control
T/C (dose: 100.0 mg/kg/injection, schedule: Q01DX005 (ip), vehicle: suspension in saline): 97 % of control
T/C (dose: 200.0 mg/kg/injection, schedule: Q01DX005 (ip), vehicle: suspension in saline): 102 % of control

NC(CNC(=O)CBr)C(=O)O (stereo not given)
T/C (dose: 6.25 mg/kg/injection, schedule: Q01DX005 (ip), vehicle: water): 117 % of control and 118 % of control
T/C (dose: 100.0 mg/kg/injection, schedule: Q01DX005 (ip), vehicle: water): 152 % of control

O=C1c2ccccc2C(=O)C1c1cc(Cl)c(O)c(Cl)c1
T/C (dose: 50.0 mg/kg/injection, schedule: Q04DX002 (ip), vehicle: saline): 100 % of control
T/C (dose: 50.0 mg/kg/injection, schedule: Q04DX002 (ip), vehicle: suspension in saline): 99 % of control
T/C (dose: 100.0 mg/kg/injection, schedule: Q04DX002 (ip), vehicle: saline): 117 % of control and 94 % of control
T/C (dose: 100.0 mg/kg/injection, schedule: Q04DX002 (ip), vehicle: suspension in saline): 98 % of control
T/C (dose: 200.0 mg/kg/injection, schedule: Q04DX002 (ip), vehicle: saline): 101 % of control and 117 % of control
T/C (dose: 200.0 mg/kg/injection, schedule: Q04DX002 (ip), vehicle: suspension in saline): 100 % of control
T/C (dose: 400.0 mg/kg/injection, schedule: Q04DX002 (ip), vehicle: saline): 96 % of control
T/C (dose: 400.0 mg/kg/injection, schedule: Q04DX002 (ip), vehicle: suspension in saline): 100 % of control

CCOC(=O)Cc1cc2c(cc1C)CN=C(OCC)C2
T/C (dose: 6.25 mg/kg/injection, schedule: Q01DX009 (ip), vehicle: distilled water + Tween-80): 100 % of control
T/C (dose: 12.5 mg/kg/injection, schedule: Q01DX009 (ip), vehicle: distilled water + Tween-80): 103 % of control
T/C (dose: 25.0 mg/kg/injection, schedule: Q01DX009 (ip), vehicle: distilled water + Tween-80): 94 % of control
T/C (dose: 50.0 mg/kg/injection, schedule: Q01DX009 (ip), vehicle: distilled water + Tween-80): 91 % of control
T/C (dose: 100.0 mg/kg/injection, schedule: Q01DX009 (ip), vehicle: distilled water + Tween-80): 91 % of control
T/C (dose: 200.0 mg/kg/injection, schedule: Q01DX009 (ip), vehicle: distilled water + Tween-80): 90 % of control
T/C (dose: 400.0 mg/kg/injection, schedule: Q01DX009 (ip), vehicle: distilled water + Tween-80): 100 % of control

CCOc1ccc(OCC)c(NC(=O)c2ccccc2)c1
T/C (dose: 100.0 mg/kg/injection, schedule: Q04DX003 (ip), vehicle: saline with Tween-80): 100 % of control
T/C (dose: 200.0 mg/kg/injection, schedule: Q04DX003 (ip), vehicle: saline with Tween-80): 95 % of control
T/C (dose: 400.0 mg/kg/injection, schedule: Q04DX003 (ip), vehicle: saline with Tween-80): 95 % of control

CCCSc1ccc([N+](=O)[O-])cc1
T/C [4]: 103 % of control
T/C [5]: 104 % of control
T/C [6]: 106 % of control

CCCCC(=O)N(c1ccc(Nc2c3ccccc3nc3cc([N+](=O)[O-])ccc23)cc1)S(C)(=O)=O
T/C (dose: 0.07 mg/kg/injection, schedule: Q01DX009 (ip), vehicle: saline with Tween-80): 107 % of control
T/C (dose: 0.1 mg/kg/injection, schedule: Q01DX009 (ip), vehicle: saline with Tween-80): 107 % of control
T/C (dose: 0.15 mg/kg/injection, schedule: Q01DX009 (ip), vehicle: saline with Tween-80): 105 % of control
T/C (dose: 0.23 mg/kg/injection, schedule: Q01DX009 (ip), vehicle: saline with Tween-80): 123 % of control
T/C (dose: 0.44 mg/kg/injection, schedule: Q04DX003 (ip), vehicle: saline with Tween-80): 112 % of control
T/C (dose: 0.66 mg/kg/injection, schedule: Q04DX003 (ip), vehicle: saline with Tween-80): 113 % of control
T/C (dose: 1.0 mg/kg/injection, schedule: Q04DX003 (ip), vehicle: saline with Tween-80): 119 % of control
T/C (dose: 2.5 mg/kg/injection, schedule: Q01DX009 (ip), vehicle: saline with Tween-80): 188 % of control
T/C (dose: 4.4 mg/kg/injection, schedule: Q04DX003 (ip), vehicle: saline with Tween-80): 154 % of control
T/C (dose: 5.0 mg/kg/injection, schedule: Q01DX009 (ip), vehicle: saline with Tween-80): 227 % of control
T/C (dose: 6.6 mg/kg/injection, schedule: Q04DX003 (ip), vehicle: saline with Tween-80): 159 % of control
T/C (dose: 9.38 mg/kg/injection, schedule: Q01DX009 (ip), vehicle: saline with Tween-80): 227 % of control
T/C (dose: 10.0 mg/kg/injection, schedule: Q01DX009 (ip), vehicle: saline with Tween-80): 254 % of control
T/C (dose: 10.0 mg/kg/injection, schedule: Q04DX003 (ip), vehicle: saline with Tween-80): 168 % of control
T/C (dose: 10.8 mg/kg/injection, schedule: Q04DX003 (ip), vehicle: water): 153 % of control
T/C (dose: 15.0 mg/kg/injection, schedule: Q04DX003 (ip), vehicle: saline with Tween-80): 186 % of control
T/C (dose: 18.0 mg/kg/injection, schedule: Q04DX003 (ip), vehicle: water): 162 % of control
T/C (dose: 30.0 mg/kg/injection, schedule: Q04DX003 (ip), vehicle: water): 180 % of control
T/C (dose: 50.0 mg/kg/injection, schedule: Q04DX003 (ip), vehicle: water): 171 % of control

COc1ccc(/C=C/C(=O)c2ccccc(=O)c2O)cc1
T/C (dose: 50.0 mg/kg/injection, schedule: Q01DX001 (ip), vehicle: Klucel (hydroxypropylcellulose) (HPC)): 106 % of control
T/C [1]: 101 % of control
T/C [2]: 105 % of control
T/C [3]: 92 % of control

CCSCC1C(=O)C23C(O)C1CCC2C12COC3(O)C(O)C1C(C)(C)CCC2O (stereo not given)
T/C (dose: 22.5 mg/kg/injection, schedule: Q01DX009 (ip), vehicle: saline with Tween-80): 108 % of control
T/C (dose: 45.0 mg/kg/injection, schedule: Q01DX009 (ip), vehicle: saline with Tween-80): 112 % of control
T/C (dose: 90.0 mg/kg/injection, schedule: Q01DX009 (ip), vehicle: saline with Tween-80): 94 % of control

O=C1C(C(=Nc2ccc3ccccc3c2)c2ccccc2)=C(O)c2ccccc21
T/C [4]: 100 % of control
T/C [5]: 102 % of control
T/C [6]: 89 % of control

COc1ccc(COC(=O)Nc2ccccc2F)c(OC)c1OC
T/C (dose: 50.0 mg/kg/injection, schedule: Q01DX005 (ip), vehicle: saline with Tween-80): 91 % of control
T/C (dose: 100.0 mg/kg/injection, schedule: Q01DX005 (ip), vehicle: saline with Tween-80): 101 % of control
T/C (dose: 200.0 mg/kg/injection, schedule: Q01DX005 (ip), vehicle: saline with Tween-80): 100 % of control

O=C(O)c1cnc2cc3c(cc2c1Nc1cccc(Cl)c1)OCO3
T/C (dose: 60.0 mg/kg/injection, schedule: Q01DX005 (ip), vehicle: Klucel (hydroxypropylcellulose) (HPC)): 93 % of control
T/C (dose: 120.0 mg/kg/injection, schedule: Q01DX005 (ip), vehicle: Klucel (hydroxypropylcellulose) (HPC)): 105 % of control
T/C (dose: 240.0 mg/kg/injection, schedule: Q01DX005 (ip), vehicle: Klucel (hydroxypropylcellulose) (HPC)): 106 % of control
